This passage reports EC50 results from PubChem BioAssay AID651872 (NMMLSC, 2012).

Chain of Beta-2 adrenergic receptor (Homo sapiens) (P07550 whole entry, looked up): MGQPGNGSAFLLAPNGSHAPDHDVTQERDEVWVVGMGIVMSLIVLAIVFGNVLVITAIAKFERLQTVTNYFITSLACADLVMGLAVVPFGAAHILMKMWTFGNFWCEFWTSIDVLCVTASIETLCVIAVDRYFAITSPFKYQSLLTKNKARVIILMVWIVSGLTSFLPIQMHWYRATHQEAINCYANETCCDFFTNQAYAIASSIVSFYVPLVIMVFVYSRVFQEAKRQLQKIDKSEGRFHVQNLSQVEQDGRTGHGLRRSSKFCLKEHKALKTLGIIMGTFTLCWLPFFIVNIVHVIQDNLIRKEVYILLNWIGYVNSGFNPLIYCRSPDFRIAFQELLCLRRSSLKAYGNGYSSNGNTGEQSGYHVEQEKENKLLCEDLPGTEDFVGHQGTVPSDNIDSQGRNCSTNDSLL

The assay addresses Beta-2 adrenergic receptor (Homo sapiens) (UniProt P07550). The assay can be described thus: ADRB2 activation measured by internalization – cell-based, FAP fluorogen, flow cytometry, powder set 4, dose response (AID 651872). Particulars: AM2.2-beta2AR cells, 90 min.
On to `CC(=O)Nc1ccc(S(=O)(=O)N2CCCCC2c2cccnc2)cc1` (stereo unspecified), for which the EC50 is 10.5 nM. Take `CN(CC(=O)N1CCN(c2cccc(C(F)(F)F)c2)CC1)S(=O)(=O)c1ccc(F)cc1`: the EC50 is 9640 nM.

As for `O=C(CN(Cc1ccccc1)S(=O)(=O)c1ccc(Cl)cc1)N1CCN(c2ccccn2)CC1`, the EC50 was 208 nM.

For `COc1ccccc1N1CCN(C(=O)CN(C)S(=O)(=O)c2ccc(C)cc2)CC1`, the EC50 was 676 nM.

Turning to `O=C(C1CCC(=O)N1S(=O)(=O)c1ccccc1)N1CCN(c2ccccn2)CC1` (stereo unspecified), the EC50 was 26.2 nM.

For `Cc1ccc(S(=O)(=O)N(C)CC(=O)N2CCN(c3ccccn3)CC2)cc1`, the EC50 is 1.6 nM.
